According to US8795222B2, “Device and method for treatment of surface infections with nitric oxide” (Pulmonox Technologies Corp., priority 2000, dated 2014):

Legend:
Type in all cases: cell-based
[1] = system: E. coli; experiment: Bacteriocidal time study, 200 ppm gNO, saline suspension
Experimental: (§1) Following the dose and time ranging studies, a series of experiments were performed to determine the time required to effectively induce a bacteriocidal effect with 200 parts per million of gNO, a concentration just above the dose used in the dose-ranging study, on a representative collection of drug resistant gram-positive and gram-negative strains of bacteria associated with clinical infection. A successful bacteriocidal effect was defined as a decrease in bacteria greater than 3 log10 cfu/ml. Further, C. albicans, Methicillin Resistant S. aureus (MRSA), a particularly resistant strain of P. aeruginosa from a cystic fibrosis patient, Group B Streptococcus, and M. smegmatis were also included to see if yeast, multi-drug resistant strains of bacteria, and actinomycetes have a similar response. The drug-resistant bacteria represent a variety of pathogens that contribute to both respiratory and wound infections.
(§2) For these experiments, saline was selected as a suspension media because it would not mask the direct effect of gNO as a bacteriocidal, whereas fully supplemented growth medium might introduce external variables (e.g., buffer or react with gNO). Other media might also provide metabolites and replenish nutrients that produce enzymes that protect bacteria from oxidative and nitrosative damage, thereby masking the effect of gNO. […] In saline, the colonies were static but remained viable. This is similar to the approach of Webert and Jean's use of animal models. Webert K E, et al (2000), Effects of inhaled nitric oxide in a rat model of Pseudomonas aeruginosa pneumonia, Crit. Care Med, 28(7):2397-2405 and Jean D, et al., (2002) Beneficial effects of nitric oxide inhalation on pulmonary bacterial clearance, Critical Care Medicine. 30(2):442-7.
(§3) The latent period was then followed by an abrupt death of all cells. Gram negative and gram positive bacteria, antibiotic resistant bacterial strains, yeast and mycobacteria were all susceptible to 200 ppm gNO. Of importance, is the observation that the two drug resistant bacteria strains were also susceptible.

[2] = system: S. aureus (Clinical); experiment: as above
Experimental: as §1, §2, §3

[3] = system: Kiebsiella sp. #2; experiment: as above
Experimental: as §1, §2, §3

[4] = system: Enterobacter sp.; experiment: as above
Experimental: as §1, §2, §3

[5] = system: Klebsiella sp. #3; experiment: as above
Experimental: as §1, §2, §3

[6] = system: Klebsiella sp. #1; experiment: as above
Experimental: as §1, §2, §3

[7] = system: S. maltophilia; experiment: as above
Experimental: as §1, §2, §3

[8] = system: P. aeruginosa (ATCC); experiment: as above
Experimental: as §1, §2, §3

[9] = system: Serracia sp.; experiment: as above
Experimental: as §1, §2, §3

[10] = system: S. aureus (ATCC); experiment: as above
Experimental: as §1, §2, §3

[11] = system: Acinetobacter sp.; experiment: as above
Experimental: as §1, §2, §3

[12] = system: P. aeruginosa; experiment: gNO dose study, colony growth on agar plates
Experimental: FIG. 7 depicts a Pseudomonas aeruginosa dosage curve for exposure to NO gas with bacteria grown on solid media. Relative percentages of growth of P. aeruginosa colony forming units (cfu) at 50, 80, 120 and 160 parts per million (ppm) of nitric oxide compared with growth of P. aeruginosa cfu in medical air (100%) are shown.
To study the effects of gaseous nitric oxide on potential pathogens, a custom gas exposure incubator was designed and validated for temperature, humidity, and gas concentrations, providing an environment that matches that of a microbiologic incubator, while enabling controlled exposure of precise concentrations of the gas. […] The gNO chamber allowed control and adjustment of following factors in all in vitro studies: gNO dose, total air flow, NO2 levels, O2 levels, CO2 levels, temperature, and humidity. For the initial pilot studies, two strains of bacterial pathogen were selected based on two proposed clinical applications of gNO for respiratory infections and topical application. P. aeruginosa is associated primarily with pulmonary disease, but may also be associated with skin infection such as in severe burns. S. aureus is associated with surface wound infections. Both of these micro-organisms were chosen for the pilot study.
The first step in the process of evaluating the direct effect of gNO on bacteria was to design a simple study to determine what dose, if any, would be an approximate lethal concentration level for microbes. Once an optimal dose was estimated, then a timing study would be conducted. For these initial studies, highly dense inoculums of P. aeruginosa and S. aureus suspensions (10^8 cfu/ml) were plated onto agar plates. These plates were then exposed to various concentrations of gNO in the exposure device in order to evaluate the effect on colony growth.

## [N]=O [gNO, nitric oxide]
[1]
  LD100: 5 h
  Latent Period*: 3 h
[1]; time to −2.5 log10 cfu/ml
  −2.5 Log10: 4.2 hrs
[2]
  LD100: 4 h
  Latent Period*: 3 h
[2]; time to −2.5 log10 cfu/ml
  −2.5 Log10: 3.7 hrs
[3]
  LD100: 5 h
  Latent Period*: 2 h
[3]; time to −2.5 log10 cfu/ml
  −2.5 Log10: 4.1 hrs
[4]
  LD100: 6 h
  Latent Period*: 4 h
[4]; time to −2.5 log10 cfu/ml
  −2.5 Log10: 5.3 hrs
[5]
  LD100: 6 h
  Latent Period*: 3 h
[5]; time to −2.5 log10 cfu/ml
  −2.5 Log10: 5.1 hrs
[6]
  LD100: 6 h
  Latent Period*: 3 h
[6]; time to −2.5 log10 cfu/ml
  −2.5 Log10: 3.5 hrs
[7]
  LD100: 4 h
  Latent Period*: 2 h
[7]; time to −2.5 log10 cfu/ml
  −2.5 Log10: 2.8 hrs
[8]
  LD100: 3 h
  Latent Period*: 1 h
[8]; time to −2.5 log10 cfu/ml
  −2.5 Log10: 2.1 hrs
[9]
  LD100: 6 h
  Latent Period*: 4 h
[9]; time to −2.5 log10 cfu/ml
  −2.5 Log10: 4.9 hrs
[10]
  LD100: 4 h
  Latent Period*: 3 h
[10]; time to −2.5 log10 cfu/ml
  −2.5 Log10: 3.3 hrs
[11]
  LD100: 6 h
  Latent Period*: 4 h
[11]; time to −2.5 log10 cfu/ml
  −2.5 Log10: 5 hrs
[12]; 24 hours after gNO exposure, controls overgrew
  colony size and number after transfer to a conventional incubator: remained the same in size and number
[12]; gNO greater than 120 ppm, agar plates
  time required to achieve the >90% reduction of colony formation: 8 to 12 h
[12]; gNO greater than 120 ppm, agar plates, compared with medical air
  reduction of colony formation: greater than 90%
[12]; increasing gNO to 120 ppm, agar plates
  survival: 5-10%
